Data taken from publication PMC7867015, “New Antiproliferative Triflavanone from Thymelaea hirsuta—Isolation, Structure Elucidation and Molecular Docking Studies” (Molecules, 2021).

How the values were obtained:
Format in all cases: cell-based
[1] = tested on: HCT-116 cells; assay: SRB cytotoxicity assay, HCT-116 cells; conditions: Homo sapiens, 48 h, read-out: IC50 against HCT-116 cells
Protocol: (§1) The cell lines used in this study were purchased from the National Cancer Institute, Cairo, Egypt and maintained in Dulbecco’s Modified Eagle Medium/F-12 (DMEM⁄F12, Sigma-Aldrich, USA), supplemented with 2 mM L-glutamine (Lonza, Belgium) and 10% fetal bovine serum (FBS, Sigma-Aldrich, MO, USA), 1% penicillin-streptomycin (Lonza, Belgium). All cells were cultured following routine tissue culture work, and treated with serial concentrations of the compounds for 48 h. Absorbance was subsequently measured (at 570 nm) using ELISA microplate reader (BIO-RAD, model iMark, Japan). The viability was calculated relative to a control and the IC50 values were determined using the non-linear regression curve fit, as previously reported in [44]
(§2) The cytotoxic activities of the isolated compounds against HepG2, VERO E6, MCF-7 and HCT-116 cells were tested using the sulforhodamine-B (SRB) assay and the results are represented in figure e and Table 2.

[2] = SRB cytotoxicity assay, HepG2 cells; conditions: human, read-out: In vitro cytotoxic effect IC50, HepG2
Protocol: as §1, §2

[3] = tested on: MCF-7 cells; assay: SRB cytotoxicity assay, MCF-7 cells; conditions: Homo sapiens, MCF7, 48 h, read-out: IC50 against MCF-7 cells
Protocol: as §1, §2

[4] = SRB cytotoxicity assay, Vero normal cells; conditions: African green monkey, Vero E6 cells (normal cells), read-out: In vitro cytotoxic effect IC50, Vero
Protocol: as §1, §2

[5] = tested on: BCL2; assay: ELISA assay for anti-apoptotic marker BCL2 in MCF-7 cells; conditions: 4.26 μM, 48 h, control 7.59 ng/mL
Excerpt: (§3) To further investigate the apoptotic pathway of compound 1 in both untreated and treated MCF-7 cells, we investigated the enzymatic assays for apoptotic markers BAX (EIA-4487, DRG International®, Springfield, NJ, USA) and caspase-9 (EIA-4860, DRG International®, USA) as proapoptotic genes and BCL2 (Cat. No. 99-0042, Zymed®, CA, USA) as the anti-apoptotic gene, following the manufacturer’s instructions.

[6] = tested on: caspase-9; assay: ELISA assay for apoptotic marker caspase-9 in MCF-7 cells; conditions: 4.26 μM, 48 h, control 5.16 pg/mL
Excerpt: as §3

[7] = tested on: Vero cells; assay: SRB cytotoxicity assay, Vero normal cells; conditions: 48 h, read-out: In vitro cytotoxic effect IC50, Vero
Protocol: as §1, §2

[8] = tested on: BAX; assay: ELISA assay for apoptotic marker BAX in MCF-7 cells; conditions: 4.26 μM, 48 h, control 43.6 pg/mL
Excerpt: as §3

[9] = tested on: MCF-7 cells; assay: Annexin V/PI staining, flow cytometry (apoptosis); conditions: 48 h
Protocol: (§4) Apoptosis rate in cells was quantified using annexin V-FITC (BD Pharmingen, San Diego, CA, USA). MCF-7 cells were seeded into 6-well culture plates (3–5 × 10^5 cells/well) and incubated overnight. The cells were then treated with compound 1 for 48 h. Next, media supernatants and cells were collected and rinsed with ice-cold PBS. The next step was suspending the cells in 100 µL of annexin binding buffer solution 25 mM CaCl2, 1.4 M NaCl, and 0.1 M Hepes/NaOH, pH 7.4 and incubation with annexin V-FITC solution (1:100) and propidium iodide (PI) at a concentration of 10 µg/mL in the dark for 30 min. Stained cells were then acquired by a Cytoflex FACS machine. Data were analyzed using cytExpert software v.2.3.

[10] = tested on: MCF-7 cells; assay: DNA content flow cytometry cell cycle analysis; conditions: 4.26 μM, 48 h
Protocol: Cell cycle analysis is an important test that determines the percentages of the cell population that are in each cell phase.. In this studyMCF-7 cancer cells were treated with compound 1, and then subjected to DNA flow cytometry to determine the stage where cell proliferation was arrested in the cell cycle.
as §4

SMILES | IC50 [1] | IC50 at 48 h [2] | IC50 [3] | IC50 at 48 h [4] | also measured
COc1cc2cc(Oc3ccc4ccc(=O)oc4c3)c(=O)oc2cc1OC [Compound 2, daphnoretin methyl ether] | 101 µM | 12.3 µM | 66.1 µM |  | 
O=C(O)c1ccc(O)cc1 [Compound 9, p-hydroxy benzoic acid] |  | 32.6 µM |  | 203 µM | 
COc1cccc2c1C(=O)c1c(O)c3c(c(O)c1C2=O)C[C@@](O)(C(=O)CO)C[C@@H]3O[C@H]1C[C@H](N)[C@H](O)[C@H](C)O1 [Doxo, Doxorubicin, reference compound] |  | 7.7 µM |  | 45.8 µM | 
O=C1c2c(O)cc(O)cc2OC(c2ccc(O)cc2)C1Oc1ccc(C2Oc3cc(O)cc(O)c3C(=O)C2C2C(=O)c3c(O)cc(O)cc3OC2c2ccc(O)cc2)cc1 (centres unmarked) [Compound 1, 2-(4-((5,7-dihydroxy-2-(4-hydroxyphenyl)-4-oxochroman-3-yl)oxy)phenyl)-5,5′,7,7′-tetrahydroxy-2′-(4 hydroxyphenyl)-[3,3′-bichromane]-4,4′-dione] | 9.6 µM | 8.6 µM | 4.26 µM | > 50 µM | BCL2 level [5]: 2.85 ng/mL; caspase-9 level [6]: 21.14 pg/mL; IC50 [7]: 56.6 µM; BAX level [8]: 362 pg/mL; apoptotic cell death increase ([9]; MCF-7 cells treated at IC50 = 4.26 μM, versus untreated control): 14.97 fold; Apoptosis Late ([9]; MCF-7 cells, 4.26 μM, control 0.23%): 22.52%; Apoptosis Early ([9]; MCF-7 cells, 4.26 μM, control 0.61%): 2.44%; Apoptosis Total (apoptosis ratio) ([9]; MCF-7 cells, 4.26 μM, control 2.71%): 40.57%; Pre-G1 cell population ([10]; control 2.71%): 40.57%; change in cell population in G0/G1, S or G2/M phase ([10]; versus control): no significant change
COc1cc2oc(=O)c(Oc3ccc4ccc(=O)oc4c3)cc2cc1O [Compound 3, rutamontine] |  | 29.8 µM |  | > 142 µM | 
O=c1ccc2ccc(Oc3cc4cc(O)c(O)cc4oc3=O)cc2o1 [Compound 6, edgeworthin] |  | 32.5 µM |  | > 148 µM | 
O=C(C=Cc1ccc(O)cc1)OCC1OC(Oc2c(-c3ccc(O)cc3)oc3cc(O)cc(O)c3c2=O)C(O)C(O)C1O (stereo not drawn) [Compound 8, trans-tiliroside] |  | 15.1 µM |  | 50.5 µM | 
COc1cc2cc(O)c(=O)oc2cc1Oc1ccc2ccc(=O)oc2c1 [Compound 4, neodaphnoretin] |  | 27.2 µM |  | 124 µM | 
COc1cc2cc(Oc3ccc4ccc(=O)oc4c3)c(=O)oc2cc1OC(C)=O [Compound 5, acetyldaphnoretin] | 24.4 µM | 9.4 µM | 46.4 µM |  | 
